Source: patent US11505539B2, “Deuterated compounds as inhibitors of the BCL6 BTB domain protein-protein interaction and/or as BCL6 degraders” (Ontario Institute for Cancer Research (OICR), priority 2017, dated 2022)

Assays:
[1] = Liver microsomal metabolic stability, human; assay type: in vitro ADME; conditions: % remaining after 60 min, 1 μM compound, 0.5 mg/mL protein
Method: (§1) (f) Microsomal Stability Assays
(§2) Liver Microsomal Metabolic Stability
(§3) Working stocks were initially diluted to a concentration of 40.0 μM in 0.1 M potassium phosphate buffer (pH 7.4) before addition to the reaction vials. CD-1 mouse (male) or pooled human liver microsomes (Corning Gentest) were utilized at a final concentration of 0.5 mg/mL (protein). Duplicate wells were used for each time point (0 and 60 minutes). Reactions were carried out at 37° C. in an orbital shaker at 175 rpm, and the final DMSO concentration was kept constant at 0.1%. The final volume for each reaction was 100 μL, which includes the addition of an NADPH-Regeneration Solution (NRS) mix. This NRS mix is comprised of glucose 6-phosphate dehydrogenase, NADP+, MgCl2, and glucose 6-phosphate. Upon completion of the 60 minute time point, reactions were terminated by the addition of 2-volumes (200 μL) of ice-cold, acetonitrile containing 0.5% formic acid and internal standard. Samples were then centrifuged at 4,000 rpm for 10 minutes to remove debris and precipitated protein. Approximately 150 μL of supernatant was subsequently transferred to a new 96 well microplate for LC/MS analysis:
(§4) Narrow-window mass extraction LC-MS analysis was performed for all samples in this study using a Waters Xevo quadrupole time-of-flight (QTof) mass spectrometer to determine relative peak areas of test compounds. The percent remaining values are calculated using the following equations: % remaining=(A)/A0×100
(§5) A is area response after incubation
(§6) A0 is area response at initial time point

[2] = Liver microsomal metabolic stability, mouse; assay type: in vitro ADME; conditions: % remaining after 60 min, 1 μM compound, 0.5 mg/mL protein
Method: as §1, §2, §3, §4, §5, §6

[3] = Microsomal intrinsic clearance assay; assay type: in vitro ADME; conditions: pH 7.4, liver microsomes 0.5 mg/mL, species (mouse or human) not given; for microsomal CLint at 1 μM: read-out: Clint (μL/min/mg protein)
Method: CD-1 mouse (male) or pooled human liver microsomes (Corning Gentest) were utilized at a final concentration of 0.5 mg/mL (protein). 12.5 μL of each drug solution were placed into a well of 96 well plate. Reactions were initiated by the addition of activated microsome solutions (500 μL) to drug solutions. Reactions were carried out at 37° C. in an orbital shaker at 175 rpm, and the final DMSO concentration was kept constant at 0.1%. Test compounds were incubated at a final concentration of 1 μM. 50 μL of aliquots of reaction mixtures were quenched by mixing with two parts of stop solution (internal standard containing 0.5% formic acid in acetonitrile) at appropriate time-points and mixed well. Then, solutions were centrifuged at 4000 rpm for 10 min. Supernatants were transferred to a new 96-well plate and analyzed by a Waters Q-TOF mass spectrometer coupled with an UPLC System. Recovery analysis was performed using relative peak areas and narrow window mass extraction.
The ln(% remaining) is plotted against time and the gradient of the line determined. Elimination Constant (k)=−slope Half-life (t½)(min)=ln 2/k=0.693/k V (μL/mg)=volume of incubation (μL)/protein in the incubation (mg) Intrinsic Clearance (CLint)(μL/min/mg protein)=V·0.693/t½=V·k

[4] = as reported; limits use in animal studies; cited from earlier work
[5] = target: T1, BTB domain of BCL6 / SMRT BBD peptide (Homo sapiens, UniProt P41182); experiment: BCL6-BTB - SMRT peptide inhibition fluorescence polarization (FP) screen; assay type: binding; conditions: 1.25 uM BCL6-BTB, 20 nM Bodipy-TMR SMRT peptide probe; lower limit of assay 1 uM
T1 construct: Thioredoxin-His6-STag-TEV-biotinylation-thrombin-BCL6 amino acids 1-129
Method: (a) BCL6-BTB—SMRT Peptide Inhibition Fluorescence Polarization (FP) Screen
Compounds were dissolved in 100% DMSO at 10 mM, assayed fresh, and then stored at −20° C. for repeat studies and future work. The reaction mixture consists of 1.25 uM of the 25 kd BCL6-BTB domain (Thioredoxin-His6-STag-TEV-biotinylation-thrombin-BCL6 amino acids 1-129) plus 20 nM of the peptide probe Ac-GSLVATVKEAGRSIHEIPA (SEQ ID NO: 1) with 16 amino acid peptide from the SMRT BBD (1414-1429) with a Bodipy-TMR fluorescent label on the lysine. […] 20 ul of this assay mixture was added to each well of the 384 well plates with the exception of the control wells that contained no protein (for setting the minimum FP value). Compounds were directly sprayed using an HP D300 Digital Dispenser from 10 mM DMSO stocks onto black 384 well plates (greiner bio-one #781900) in a concentration range from 1 uM to 500 uM (10 points in duplicate). The assay was equilibrated for 1 hour prior to reading the FP values (Ex 540 nm/Em 580 nm) with a Perkin Elmer Envision plate reader. The results were curve fitted and IC50 values were calculated using the BioAssay software from CambridgeSoft.

BCL6 BTB domain = target: T2, BCL6 BTB domain (Homo sapiens, UniProt P41182); experiment: Surface plasmon resonance (SPR) assay; assay type: binding; conditions: Biacore T200, single cycle kinetics
T2 construct: BCL6 BTB domain (biotin-thrombin-BCL6 amino acids 1-129; 17 kd); Thioredoxin-His6-STag (N, cleaved yes); made in house
Method: (b) Surface Plasmon Resonance (SPR) Assay
SPR studies were performed using a Biacore™ T200 instrument (GE Health Sciences Inc.). The BCL6 BTB protein used in the FP assay was biotinylated using the site specific biotinylating enzyme BirA, and then cleaved with TEV protease to produce the BCL6 BTB domain (biotin-thrombin-BCL6 amino acids 1-129; 17 kd) that was use in SPR. This protein was stably captured (1000RU) to streptavidin coupled SA chips (BR-1005-31, GE Health Sciences Inc.) according to the manufacture's protocol. Compounds were dissolved in 100% DMSO at 10 mM and 2-fold serial dilutions were done in 100% DMSO. For SPR analysis the serially titrated compounds were diluted 1/20 into buffer (10 mM HEPES pH7.4, 150 mM NaCl, 0.05% Tween-20, 3 mM EDTA) giving a final concentration of 5% DMSO. The Biacore flow rate was set at 100 ul/min. For KD determinations, single cycle kinetic analysis was performed with an on time of 60 seconds, and an off time of 300 seconds. Curve fitting and KD calculations were done with the Biacore T200 Evaluation software (GE Health Sciences Inc).

[6] = test system: SuDHL4-3xBCL6-TK-Luc cells; experiment: Cell-based BCL6 reporter luciferase assay; conditions: Homo sapiens, SU-DHL-4, 48 h, two days
Method: (c) Cell-Based Luciferase Assay:
A BCL6 reporter construct containing three copies of the consensus BCL6 binding site, the TK promoter, and the firefly luciferase gene was stably expressed in SuDHL4 cells after lentivirus infection and selection with Blasticidin. SuDHL4-3×BCL6-TK-Luc cells were seeded into a Viewplate 384-well assay dish at 15,000 cells/well in 25 ul medium (Alpha-MEM high glucose containing 10% FBS, 25 mM HEPES, […] GlutaMAX, 100 ug/ml Normocin, and […] Gentamycin, Invitrogen). A HP D300 digital dispenser was used to dose cells with DMSO or test compounds across a 10-point range of concentrations (high dose of 10 uM), and cultures were grown in a humidified 5% CO2 incubator at 37° C. After two days, plates were removed from incubator and equilibrated to room temperature. An equal volume of neolite reporter gene assay reagent was added to each well, and samples were processed according to manufacturer's instructions (Perkin Elmer). Luminescent signal was measured using an Envision plate reader equipped with a US-Luminescence detector.

Karpas422 cells = experiment: Tumor cell growth inhibition assay; assay type: cell-based; conditions: Homo sapiens, KARPAS-422, 144 h; Karpas422, six days, ATPlite; read-out: GI Karpas EC50
Method: (d) Tumor Cell Growth inhibition Assay:
Karpas422 cells were seeded into a 96-well plate at 2,000 cells/well in 150 ul medium (Alpha-MEM containing 10% FBS, […] Normocin, and […] Gentamycin, Invitrogen). A HP D300 digital dispenser was used to dose cells with DMSO or test compounds across a 10-point range of concentrations (high dose of 5 uM), and cultures were grown in a humidified 5% CO2 incubator at 37° C. After six days, plates were removed from incubator and equilibrated to room temperature. An equal volume of ATPlite assay reagent was added to each well, and samples were processed according to manufacturer's instructions (Perkin Elmer). Luminescent signal was measured using an Envision plate reader equipped with a US-Luminescence detector.

## CNC(=O)COc1cc2cc(Nc3nc(N4C[C@H](C)C[C@H](C)C4)ncc3Cl)ccc2n(C)c1=O [BI-3802, reference compound]
[1]
  Human Liver Microsomes (HLM, % @ 1 h): 25%
[2]
  Mouse Liver Microsomes (MLM, % @ 1 h): 13%
[3]
  half-life at 1 μM: 12 min
  microsomal CLint at 1 μM: 112 µL/min/mg
[4]
  bioavailability: poor bioavailability

## [2H]C([2H])([2H])NC(=O)C([2H])([2H])Oc1cc2cc(Nc3nc(N4C[C@@H](C)C(F)(F)[C@@H](C)C4)ncc3Cl)ccc2n(C)c1=O [Ib]
[5]
  IC50: ≤ 900 nM
BCL6 BTB domain
  Kd: 4.53 nM
[6]
  IC50: 7.57 nM
Karpas422 cells
  EC50: 5.04 nM
[1]
  Human Liver Microsomes (HLM, % @ 1 h): 100%
[2]
  Mouse Liver Microsomes (MLM, % @ 1 h): 91%
[3]
  half-life at 1 μM: 82 min
  microsomal CLint at 1 μM: 17 µL/min/mg

## [2H]C([2H])([2H])NC(=O)C([2H])([2H])Oc1cc2cc(Nc3nc(N4C[C@H](C)C[C@H](C)C4)ncc3Cl)ccc2n(C)c1=O [Example Ia, 2-((6-((5-chloro-2-((3R,5S)-3,5-dimethylpiperidin-1-yl)pyrimidin-4-yl)amino)-1-methyl-2-oxo-1,2-dihydroquinolin-3-yl)oxy)-N-(methyl-d3)acetamide-2,2-d2]
[5]
  IC50: ≤ 1000 nM
BCL6 BTB domain
  Kd: 4.56 nM
[6]
  IC50: 46.6 nM
Karpas422 cells
  EC50: 14.1 nM
[1]
  Human Liver Microsomes (HLM, % @ 1 h): 26%
[2]
  Mouse Liver Microsomes (MLM, % @ 1 h): 8%
[3]
  half-life at 1 μM: 29 min
  microsomal CLint at 1 μM: 48 µL/min/mg
